Assay results reported in US11028064B2, “Tricyclic heterocyclic derivatives and uses thereof” (AUCKLAND UNISERVICES LIMITED, priority 2016, dated 2021).
pIC50: −log10 of the molar value.

What was measured:
[1] = target: KDR (VEGFR2) (Homo sapiens (Human), UniProt P35968); experiment: SelectScreen Z'-LYTE kinase assay, Assay 540 for KDR (VEGFR2); assay type: biochemical; settings: Z'-LYTE activity assay, 75 μM ATP (Km app); read-out: VEGFR2 Enzyme IC50
[2] = target: CSF-1R (FMS) (Homo sapiens (Human), UniProt P07333); experiment: SelectScreen Z'-LYTE kinase assay, Assay 336 for CSF-1R (FMS); assay type: biochemical; settings: Z'-LYTE activity assay, 500 μM ATP (Km app); read-out: CSF-1R Enzyme IC50
CSF-1R (FMS), sequence (P07333 20-972): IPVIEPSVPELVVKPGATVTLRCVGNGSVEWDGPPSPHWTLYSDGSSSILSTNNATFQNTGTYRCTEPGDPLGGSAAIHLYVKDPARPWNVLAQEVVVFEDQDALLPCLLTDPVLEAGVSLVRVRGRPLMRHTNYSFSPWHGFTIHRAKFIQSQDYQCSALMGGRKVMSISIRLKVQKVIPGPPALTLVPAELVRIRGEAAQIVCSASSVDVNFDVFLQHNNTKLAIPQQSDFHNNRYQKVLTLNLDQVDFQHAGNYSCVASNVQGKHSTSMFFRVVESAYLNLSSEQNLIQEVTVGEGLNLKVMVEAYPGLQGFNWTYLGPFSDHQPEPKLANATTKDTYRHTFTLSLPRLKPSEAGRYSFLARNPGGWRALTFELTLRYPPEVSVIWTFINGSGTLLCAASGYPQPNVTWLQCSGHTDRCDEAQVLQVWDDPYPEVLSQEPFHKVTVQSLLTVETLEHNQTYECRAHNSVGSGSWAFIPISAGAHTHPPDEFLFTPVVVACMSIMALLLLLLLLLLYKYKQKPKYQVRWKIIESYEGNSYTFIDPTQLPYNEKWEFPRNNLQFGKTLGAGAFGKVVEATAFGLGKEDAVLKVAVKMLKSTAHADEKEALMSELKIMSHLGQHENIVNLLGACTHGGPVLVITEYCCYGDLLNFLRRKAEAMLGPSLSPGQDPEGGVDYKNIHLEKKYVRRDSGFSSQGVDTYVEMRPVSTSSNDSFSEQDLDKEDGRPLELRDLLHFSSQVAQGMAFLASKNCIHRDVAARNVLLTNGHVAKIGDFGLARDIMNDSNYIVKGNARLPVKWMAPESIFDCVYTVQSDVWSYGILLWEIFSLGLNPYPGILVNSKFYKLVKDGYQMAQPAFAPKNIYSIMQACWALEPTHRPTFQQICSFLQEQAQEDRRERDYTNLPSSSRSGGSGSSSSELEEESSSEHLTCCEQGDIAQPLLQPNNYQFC

KDR (VEGFR2), sequence (P35968 20-1356): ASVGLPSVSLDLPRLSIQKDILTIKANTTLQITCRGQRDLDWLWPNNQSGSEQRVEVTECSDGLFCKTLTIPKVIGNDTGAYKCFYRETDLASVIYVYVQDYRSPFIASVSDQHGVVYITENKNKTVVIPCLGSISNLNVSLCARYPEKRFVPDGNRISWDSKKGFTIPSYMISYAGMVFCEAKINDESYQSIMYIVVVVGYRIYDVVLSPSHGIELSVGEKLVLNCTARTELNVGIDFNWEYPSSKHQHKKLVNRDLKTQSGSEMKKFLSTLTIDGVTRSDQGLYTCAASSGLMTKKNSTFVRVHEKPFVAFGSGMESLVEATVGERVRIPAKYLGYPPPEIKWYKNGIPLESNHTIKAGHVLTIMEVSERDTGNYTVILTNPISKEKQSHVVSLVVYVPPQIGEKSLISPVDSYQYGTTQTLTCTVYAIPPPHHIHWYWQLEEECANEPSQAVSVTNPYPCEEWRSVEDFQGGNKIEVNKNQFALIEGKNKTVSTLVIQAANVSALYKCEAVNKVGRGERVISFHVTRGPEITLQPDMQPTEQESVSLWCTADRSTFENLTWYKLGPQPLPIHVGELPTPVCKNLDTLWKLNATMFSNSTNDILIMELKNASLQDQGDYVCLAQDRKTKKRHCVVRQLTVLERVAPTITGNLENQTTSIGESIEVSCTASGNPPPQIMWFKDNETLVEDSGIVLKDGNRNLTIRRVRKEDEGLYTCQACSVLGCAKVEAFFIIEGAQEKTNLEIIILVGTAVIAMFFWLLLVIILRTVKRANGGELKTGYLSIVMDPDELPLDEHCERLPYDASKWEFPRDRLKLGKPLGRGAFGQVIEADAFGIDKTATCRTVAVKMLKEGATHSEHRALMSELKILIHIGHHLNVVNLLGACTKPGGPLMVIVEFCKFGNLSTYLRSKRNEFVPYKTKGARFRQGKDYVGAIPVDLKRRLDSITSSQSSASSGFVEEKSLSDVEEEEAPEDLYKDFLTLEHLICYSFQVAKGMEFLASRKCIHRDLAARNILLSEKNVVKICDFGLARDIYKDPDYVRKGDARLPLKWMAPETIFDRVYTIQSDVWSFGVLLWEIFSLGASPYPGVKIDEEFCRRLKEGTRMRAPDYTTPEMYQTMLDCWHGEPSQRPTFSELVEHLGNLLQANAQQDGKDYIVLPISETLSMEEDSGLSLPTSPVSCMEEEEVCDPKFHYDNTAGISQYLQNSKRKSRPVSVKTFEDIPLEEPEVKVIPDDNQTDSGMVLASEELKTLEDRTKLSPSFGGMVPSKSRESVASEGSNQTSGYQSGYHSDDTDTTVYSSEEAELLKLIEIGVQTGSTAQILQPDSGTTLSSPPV

Row | Compound | pIC50 [1] | pIC50 [2]
1 | Cc1cc(OCCN2CCN(CC(F)(F)F)CC2)c2oc3cc(Oc4ccc(CCC(=O)NC5CCCC5)nc4)ccc3c(=O)c2c1 [Example 59, N-Cyclopentyl-3-(5-((7-methyl-9-oxo-5-(2-(4-(2,2,2-trifluoroethyl)piperazin-1-yl)ethoxy)-9H-xanthen-3-yl)oxy)pyridin-2-yl)propanamide] | < 5.00 | > 7.00
2 | Cc1cc(OCCCCN(C)C)c2oc3cc(Oc4ccccc4)ccc3c(=O)c2c1 [Example 34, 4-(4-(Dimethylamino)butoxy)-2-methyl-6-phenoxy-9H-xanthen-9-one] | 5.00 to 6.00 | 6.00 to 7.00
3 | CN(C)CCOc1cccc2c(=O)c3ccc(Oc4cccc(C(=O)Nc5ccccc5)c4)cc3oc12 [Example 2, 3-({5-[2-(Dimethylamino)ethoxy]-9-oxo-9H-xanthen-3-yl}oxy)-N-phenylbenzamide] | 5.00 to 6.00 | > 7.00
4 | Cc1cc(OCCN(C)C)c2oc3cc(Oc4cccnc4)ccc3c(=O)c2c1 [Example 53, 4-(2-(Dimethylamino)ethoxy)-2-methyl-6-(pyridin-3-yloxy)-9H-xanthen-9-one] | < 5.00 | 6.00 to 7.00
5 | COc1ccc(Oc2ccc3c(=O)c4cc(C)cc(OCCN(C)C)c4oc3c2)cn1 [Example 8, 4-(2-(Dimethylamino)ethoxy)-6-((6-methoxypyridin-3-yl)oxy)-2-methyl-9H-xanthen-9-one] | < 5.00 | 6.00 to 7.00
6 | Cc1cc(OCCN(C(C)C)C(C)C)c2oc3cc(Oc4ccc(CCC(=O)NC5CCCC5)nc4)ccc3c(=O)c2c1 [Example 57, N-Cyclopentyl-3-[5-({5-[2-(diisopropylamino)ethoxy]-7-methyl-9-oxo-9H-xanthen-3-yl}oxy)-2-pyridinyl]propanamide] | – | > 7.00
7 | COc1ccc(CCc2ccc(Oc3ccc4c(=O)c5cccc(OCCN(C)C)c5oc4c3)cn2)cc1 [Example 3, 5-[2-(Dimethylamino)ethoxy]-3-({6-[2-(4-methoxyphenyl)ethyl]-3-pyridinyl}oxy)-9H-xanthen-9-one] | – | 6.00 to 7.00
8 | Cc1cc(OCCN(C)C)c2oc3cc(Oc4ccc(N)nc4)ccc3c(=O)c2c1 [Example 17, 6-((6-Aminopyridin-3-yl)oxy)-4-(2-(dimethylamino)ethoxy)-2-methyl-9H-xanthen-9-one] | < 5.00 | 6.00 to 7.00
9 | Cc1cc(OCCN2CCCCC2)c2oc3cc(Oc4ccc(CCC(=O)NC5CCCC5)nc4)ccc3c(=O)c2c1 [Example 38, N-Cyclopentyl-3-(5-((7-methyl-9-oxo-5-(2-(piperidin-1-yl)ethoxy)-9H-xanthen-3-yl)oxy)pyridin-2-yl)propanamide] | – | > 7.00
10 | COc1ccc(COc2ncc(Oc3ccc4c(=O)c5cc(C)cc(OCCN(C)C)c5oc4c3)cc2OC)cc1 [Example 12, 4-(2-(Dimethylamino)ethoxy)-6-((5-methoxy-6-((4-methoxybenzyl)oxy)pyridin-3-yl)oxy)-2-methyl-9H-xanthen-9-one] | – | > 7.00
11 | COc1ccc(CCc2ccc(Oc3ccc4c(=O)c5cc(C)cc(OCCN(C)C)c5oc4c3)cn2)cc1 [Example 18, 4-(2-(Dimethylamino)ethoxy)-6-((6-(4-methoxyphenethyl)pyridin-3-yl)oxy)-2-methyl-9H-xanthen-9-one] | – | > 7.00
12 | Cc1cc(OC2CCN(C)CC2)c2oc3cc(Oc4ccc(CCC(=O)NC5CCCC5)nc4)ccc3c(=O)c2c1 [Example 71, N-Cyclopentyl-3-[5-({7-methyl-5-[(1-methyl-4-piperidinyl)oxy]-9-oxo-9H-xanthen-3-yl}oxy)-2-pyridinyl]propanamide] | 5.00 to 6.00 | –
13 | COc1ccc(CNc2ccc(Oc3ccc4c(=O)c5cc(C)cc(OCCN(C)C)c5oc4c3)cn2)cc1 [Example 14, 4-(2-(Dimethylamino)ethoxy)-6-((6-((4-methoxybenzyl)amino)pyridin-3-yl)oxy)-2-methyl-9H-xanthen-9-one] | – | > 7.00
14 | COc1ccc(CCc2ccc(Oc3ccc4c(=O)c5cc(Cl)cc(OCCN(C)C)c5oc4c3)cn2)cc1 [Example 41, 2-Chloro-4-[2-(dimethylamino)ethoxy]-6-({6-[2-(4-methoxyphenyl)ethyl]-3-pyridinyl}oxy)-9H-xanthen-9-one] | – | 6.00 to 7.00
15 | Cc1cc(OCCN(C)C)c2sc3cc(Oc4ccccc4)ccc3c(=O)c2c1 [Example 48, 4-(2-(Dimethylamino)ethoxy)-2-methyl-6-phenoxy-9H-thioxanthen-9-one] | – | 6.00 to 7.00
16 | Cc1cc(OCCN(C)C)c2oc3cc(Oc4ccc(CCC(=O)Nc5cccnc5)nc4)ccc3c(=O)c2c1 [Example 21, 3-(5-((5-(2-(Dimethylamino)ethoxy)-7-methyl-9-oxo-9H-xanthen-3-yl)oxy)pyridin-2-yl)-N-(pyridin-3-yl)propanamide] | – | > 7.00
17 | Cc1cc(OCCN(C)C)c2oc3cc(Oc4ccc(CCC(=O)N5CCOCC5)nc4)ccc3c(=O)c2c1 [Example 24, 4-(2-(Dimethylamino)ethoxy)-2-methyl-6-((6-(3-morpholino-3-oxopropyl)pyridin-3-yl)oxy)-9H-xanthen-9-one] | – | > 7.00
18 | Cc1cc(OC2CCCN(C)C2)c2oc3cc(Oc4ccc(CCC(=O)NC5CCCC5)nc4)ccc3c(=O)c2c1 (stereo not drawn) [Example 60, N-Cyclopentyl-3-(5-((7-methyl-5-((1-methylpiperidin-3-yl)oxy)-9-oxo-9H-xanthen-3-yl)oxy)pyridin-2-yl)propanamide] | – | > 7.00
19 | Cc1cc(OCCN2CCOCC2)c2oc3cc(Oc4ccc(CCC(=O)NC5CCCC5)nc4)ccc3c(=O)c2c1 [Example 56, N-Cyclopentyl-3-[5-({7-methyl-5-[2-(4-morpholinyl)ethoxy]-9-oxo-9H-xanthen-3-yl}oxy)-2-pyridinyl]propanamide] | – | > 7.00
20 | Cc1cc(OCCN(C)C)c2oc3cc(Oc4cccc(C(=O)Nc5ccccc5)c4)ccc3c(=O)c2c1 [Example 5, 3-((5-(2-(Dimethylamino)ethoxy)-7-methyl-9-oxo-9H-xanthen-3-yl)oxy)-N-phenyl-benzamide] | 5.00 to 6.00 | –
21 | COc1ccc(COc2ccc(Oc3ccc4c(=O)c5cc(C)cc(OCCN(C)C)c5oc4c3)cn2)cn1 [Example 11, 4-(2-(Dimethylamino)ethoxy)-6-((6-((6-methoxypyridin-3-yl)methoxy)pyridin-3-yl)oxy)-2-methyl-9H-xanthen-9-one] | – | > 7.00

Second part, the compound after the results:

Row | pIC50 [1] | pIC50 [2] | Compound
22 | < 5.00 | > 7.00 | Cc1cc(OCCN2C[C@@H](C)N(C)[C@@H](C)C2)c2oc3cc(Oc4ccc(CCC(=O)NC5CCCC5)nc4)ccc3c(=O)c2c1 [Example 62, N-Cyclopentyl-3-(5-((7-methyl-9-oxo-5-(2-((3S,5R)-3,4,5-trimethylpiperazin-1-yl)ethoxy)-9H-xanthen-3-yl)oxy)pyridin-2-yl)propanamide]
23 | 5.00 to 6.00 | > 7.00 | Cc1cc(OCCN(C)C)cc2c(=O)c3ccc(Oc4ccc(CCC(=O)NC5CCCC5)nc4)cc3oc12 [Example 45, N-Cyclopentyl-3-(5-((7-(2-(dimethylamino)ethoxy)-5-methyl-9-oxo-9H-xanthen-3-yl)oxy)pyridin-2-yl)propanamide]
24 | 5.00 to 6.00 | > 7.00 | Cc1cc(OCCN(C)C)c2oc3cc(Sc4ccc(CCC(=O)NC5CCCC5)nc4)ccc3c(=O)c2c1 [Example 43, N-Cyclopentyl-3-(5-((5-(2-(dimethylamino)ethoxy)-7-methyl-9-oxo-9H-xanthen-3-yl)thio)pyridin-2-yl)propanamide]
25 | 5.00 to 6.00 | > 7.00 | Cc1cc(OCCCN2CCN(C(C)C)CC2)c2oc3cc(Oc4ccc(CCC(=O)NC5CCCC5)nc4)ccc3c(=O)c2c1 [Example 66, N-Cyclopentyl-3-(5-((5-(3-(4-isopropylpiperazin-1-yl)propoxy)-7-methyl-9-oxo-9H-xanthen-3-yl)oxy)pyridin-2-yl)propanamide]
26 | – | > 7.00 | Cc1cc(OCCN(C)C)c2oc3cc(Oc4ccc(CCNC(=O)C5CCCC5)nc4)ccc3c(=O)c2c1 [Example 26, N-(2-(5-((5-(2-(Dimethylamino)ethoxy)-7-methyl-9-oxo-9H-xanthen-3-yl)oxy)pyridin-2-yl)ethyl)cyclopentanecarboxamide]
27 | – | > 7.00 | COc1cc(OCCN(C)C)cc2c(=O)c3ccc(Oc4ccc(CCC(=O)NC5CCCC5)nc4)cc3oc12 [Example 46, N-Cyclopentyl-3-(5-((7-(2-(dimethylamino)ethoxy)-5-methoxy-9-oxo-9H-xanthen-3-yl)oxy)pyridin-2-yl)propanamide]
28 | – | > 7.00 | Cc1cc(OCCN2C[C@@H](C)N[C@@H](C)C2)c2oc3cc(Oc4ccc(CCC(=O)NC5CCCC5)nc4)ccc3c(=O)c2c1 [Example 61, N-Cyclopentyl-3-(5-((5-(2-((3S,5R)-3,5-dimethylpiperazin-1-yl)ethoxy)-7-methyl-9-oxo-9H-xanthen-3-yl)oxy)pyridin-2-yl)propanamide]
29 | – | > 7.00 | CCN1CCN(CCCOc2cc(C)cc3c(=O)c4ccc(Oc5ccc(CCC(=O)NC6CCCC6)nc5)cc4oc23)CC1 [Example 65, N-Cyclopentyl-3-(5-((5-(3-(4-ethylpiperazin-1-yl)propoxy)-7-methyl-9-oxo-9H-xanthen-3-yl)oxy)pyridin-2-yl)propanamide]
30 | – | > 7.00 | Cc1cc(OCCCN2C[C@@H](C)N(C)[C@@H](C)C2)c2oc3cc(Oc4ccc(CCC(=O)NC5CCCC5)nc4)ccc3c(=O)c2c1 [Example 68, N-Cyclopentyl-3-(5-((7-methyl-9-oxo-5-(3-((3S,5R)-3,4,5-trimethylpiperazin-1-yl)propoxy)-9H-xanthen-3-yl)oxy)pyridin-2-yl)propanamide]
31 | – | > 7.00 | CN(C)CCOc1ccc2c(=O)c3ccc(Oc4ccc(CCC(=O)NC5CCCC5)nc4)cc3oc2c1 [Example 47, N-Cyclopentyl-3-(5-((6-(2-(dimethylamino)ethoxy)-9-oxo-9H-xanthen-3-yl)oxy)pyridine-2-yl)propanamide]
32 | – | > 7.00 | Cc1cc(OC2CCN(C)C2)c2oc3cc(Oc4ccc(CCC(=O)NC5CCCC5)nc4)ccc3c(=O)c2c1 (stereo not drawn) [Example 70, N-Cyclopentyl-3-(5-((7-methyl-5-((1-methylpyrrolidin-3-yl)oxy)-9-oxo-9H-xanthen-3-yl)oxy)pyridin-2-yl)propanamide]
